Source: patent US9193744B2, “Heterocyclic nuclear hormone receptor modulators” (AbbVie Inc., priority 2012, dated 2015)
pIC50: −log10 of the molar value. Where two headings read alike, the source gives them in different places.

What was measured:
[1] = molecular target: T1, Glucocorticoid Receptor (GR) (Homo sapiens, UniProt P04150); assay: GR Fluorescence Polarization Assay (PolarScreen Glucocorticoid Receptor Competitor Assay, Red); settings: fluorescence polarization binding ranges
T1 construct: purchased Invitrogen P2893
T1 sequence (P04150 1-777): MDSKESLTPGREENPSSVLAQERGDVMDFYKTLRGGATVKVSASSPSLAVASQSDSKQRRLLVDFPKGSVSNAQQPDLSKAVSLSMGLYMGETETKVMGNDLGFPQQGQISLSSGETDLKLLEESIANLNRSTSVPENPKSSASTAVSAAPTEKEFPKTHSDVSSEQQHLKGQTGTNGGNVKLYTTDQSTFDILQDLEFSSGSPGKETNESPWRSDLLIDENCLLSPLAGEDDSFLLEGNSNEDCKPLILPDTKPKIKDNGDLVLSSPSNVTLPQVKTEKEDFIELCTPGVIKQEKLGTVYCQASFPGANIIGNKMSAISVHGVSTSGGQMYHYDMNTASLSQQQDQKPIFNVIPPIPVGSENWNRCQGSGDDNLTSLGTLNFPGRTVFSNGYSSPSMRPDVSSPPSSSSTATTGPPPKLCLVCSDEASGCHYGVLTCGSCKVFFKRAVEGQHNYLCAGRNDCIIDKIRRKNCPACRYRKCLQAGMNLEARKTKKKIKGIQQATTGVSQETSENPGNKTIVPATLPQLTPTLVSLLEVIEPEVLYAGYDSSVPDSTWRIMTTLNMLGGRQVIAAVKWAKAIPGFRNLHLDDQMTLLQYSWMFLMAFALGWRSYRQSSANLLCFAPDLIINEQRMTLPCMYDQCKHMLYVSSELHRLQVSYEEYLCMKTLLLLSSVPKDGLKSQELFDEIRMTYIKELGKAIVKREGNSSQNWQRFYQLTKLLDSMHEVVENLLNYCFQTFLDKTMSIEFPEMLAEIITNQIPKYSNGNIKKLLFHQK
Outline: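 Compound displacement of a red-labelled glucocorticoid from GR, read as fluorescence polarization. Tracer, receptor and 1:4-serially diluted compound were left together overnight at 4° C in the kit assay buffer.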

[2] = tested on: IL-6; assay: A549 Cell Assay to Measure Inflammation Markers (inhibition of IL-1β-induced IL-6); assay type: cell-based; settings: A549 cells, read-out: A549 cell assay
Outline: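 A549 cells pre-incubated 1 h with compound (10-point dilution, 0.1% DMSO final) in charcoal-stripped serum medium, then stimulated 4 h with 1 ng/mL IL-1β at 37° C. Supernatant IL-6 measured by MSD immunoassay; IC50 and Emax relative to 1 μM prednisolone as 100% inhibition; viability checked by CellTiter-Glo.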

[3] = tested on: OCN; assay: MG-63 Cell Assay to Measure Bone Markers (inhibition of Vitamin K/Vitamin D-induced OCN); assay type: cell-based; settings: Homo sapiens, MG63 cells
Protocol: MG-63 Cell Assay to Measure Bone Markers
MG-63 cells were cultured in culture media containing ascorbic acid (DMEM/F12 supplemented with 10% FBS, 1% HEPES, 100 U/mL-100 μg/mL Pen-Strep, and 100 μg/mL of ascorbic acid) for, minimally, 1 week before study. MG-63 cells were seeded (4E4 cells/well) in 96-well assay plates in culture medium (200 μL/well.) After overnight culture in an incubator set to 37° C., 4.9% CO2, and 90% humidity, media was removed from adherent cells by aspiration and replaced with 100 μL/well assay medium, DMEM/F12 supplemented with 5% Charcoal Stripped Serum, 1% HEPES, 100 U/mL-100 μg/mL Pen-Strep, and 100 μg/mL of ascorbic acid. Compounds were prepared with DMSO and serial diluted (1:3, 1:4, or 1:5) with DMSO in dilution plate(s) to give 10 dilution points for each compound tested. Further dilution (1:250) of compound was made into assay medium and 50 μL/well diluted drug or DMSO/media control was applied to cells. After a 1 h pre-incubation in a temperature, CO2, and humidity controlled incubator, set to 37° C., 50 μL/well of 40 nM Vitamin K and 400 nM Vitamin D that were diluted in assay media were applied to plates. Assay plates, with a final volume of 200 μL/well and final concentrations of 0.1% DMSO, 10 nM Vitamin K, and 100 nM Vitamin D, were returned to incubator for overnight culture. Next, plates were spun at 183 g (1000 rpm in Beckman/Coulter Allegra 6KR centrifuge) for 10 min. Cell-free supenatant (150 μL/well) was collected and OCN was measured by MSD kit, following protocol of manufacturer, and using MSD SECTOR Imager 6000 instrument. Potency of drug to inhibit OCN was determined using the percent reduction of measured OCN in wells with drug compared to control wells without drug, and relative to (100% inhibition) positive control sample of 10 μM prednisolone. Results were represented as IC50 and Emax values. To verify that viable cell numbers were similar across plate(s), and not confounding compound IC50 data interpretation, the remaining 50 μL/well of cells and media (after removal of supernatant) were used to run Cell Titer-Glo Assay per directions of manufacturer.

| Compound | pIC50 [1] | pIC50 ([2]; Homo sapiens) | pIC50 [3] | pIC50 [2] |
| --- | --- | --- | --- | --- |
| CC[C@]12CC[C@@](O)(COC)C[C@H]1CCOc1cc3c(cnn3-c3ccncc3)cc12 [Example 133] | 6.00 to 7.00 | < 5.00 |  |  |
| CC[C@@]12CC[C@](O)(COC)C[C@@H]1CCOc1cc3c(cnn3-c3ccncc3)cc12 [Example 134] | > 7.00 | > 7.00 |  |  |
| CC[C@@]12CC[C@](O)(COC)C[C@@H]1CCOc1cc3c(cnn3-c3ccnc(OC)c3)cc12 [Example 138] | > 7.00 |  |  | 5.00 to 6.00 |
| CC[C@@]12CC[C@](O)(COC)C[C@@H]1CCOc1cc3c(cnn3-c3ccnc(C(F)(F)F)c3)cc12 [Example 141] | > 7.00 |  |  | 5.00 to 6.00 |
| CC[C@@]12CC[C@@](C)(O)C[C@@H]1CCOc1cc3c(cnn3-c3ccnc(C)c3)cc12 [Example 143] | > 7.00 | > 7.00 |  |  |
| CC[C@@]12CC[C@](O)(CC#N)C[C@@H]1CCOc1cc3c(cnn3-c3ccnc(C)c3)cc12 [Example 145] | > 7.00 | > 7.00 |  |  |
| COC[C@@]1(O)CC[C@@]2(Cc3ccccn3)c3cc4cnn(-c5ccc(F)cc5)c4nc3CCC[C@@H]2C1 [Example 156] | > 7.00 |  |  | > 7.00 |
| COC[C@@]1(O)CC[C@@]2(Cc3ncccn3)c3cc4cnn(-c5ccc(F)cc5)c4nc3CCC[C@H]2C1 [Example 158] | > 7.00 |  |  | > 7.00 |
| N#CC[C@]1(O)CC[C@]2(Cc3ncccn3)c3cc4cnn(-c5ccc(F)cc5)c4nc3CCC[C@@H]2C1 [Example 160] | > 7.00 |  |  | > 7.00 |
| C[C@]1(O)CC[C@]2(Cc3ncccn3)c3cc4cnn(-c5ccc(F)cc5)c4nc3CCC[C@@H]2C1 [Example 162] | 6.00 to 7.00 |  |  | 5.00 to 6.00 |
| N#CC[C@@]1(O)CC[C@@]2(Cc3ccccn3)c3cc4cnn(-c5ccc(F)cc5)c4nc3CCC[C@H]2C1 [Example 163] | > 7.00 |  |  | > 7.00 |
| N#CC[C@@]1(O)CC[C@@]2(Cc3ncccn3)c3cc4cnn(-c5ccc(F)cc5)c4nc3CCC[C@H]2C1 [Example 165] | > 7.00 |  |  | > 7.00 |
| CC[C@@]12CC[C@](O)(C(F)(F)F)C[C@H]1CCCc1cc3c(cnn3-c3ccc(S(C)(=O)=O)cc3)cc12 [Example 168, (3R,4aR,12bR)-12b-ethyl-9-(4-(methylsulfonyl)phenyl)-3-(trifluoromethyl)-1,2,3,4,4a,5,6,7,9,12b-decahydrobenzo[6,7]cyclohepta[1,2-f]indazol-3-ol] | > 7.00 | > 7.00 |  |  |
| CC[C@]12CC[C@@](O)(C(F)(F)F)C[C@@H]1CCCc1cc3c(cnn3-c3ccc(S(C)(=O)=O)cc3)cc12 [Example 169, (3S,4aS,12bS)-12b-ethyl-9-(4-(methylsulfonyl)phenyl)-3-(trifluoromethyl)-1,2,3,4,4a,5,6,7,9,12b-decahydrobenzo[6,7]cyclohepta[1,2-f]indazol-3-ol] | 6.00 to 7.00 | 5.00 to 6.00 |  |  |
| CC[C@]12CC[C@@](OCC(N)=O)(C(F)(F)F)C[C@@H]1CCCc1cc3c(cnn3-c3ccc(F)cc3)cc12 [Example 171, 2-(((3S,4aS,12bS)-12b-Ethyl-9-(4-fluorophenyl)-3-(trifluoromethyl)-1,2,3,4,4a,5,6,7,9,12b-decahydrobenzo[6,7]cyclohepta[1,2-f]indazol-3-yl)oxy)acetamide] | > 7.00 | > 7.00 |  |  |
| CC[C@]12CC[C@@](OCC(=O)O)(C(F)(F)F)C[C@@H]1CCCc1cc3c(cnn3-c3ccc(F)cc3)cc12 [Example 172, 2-(((3S,4aS,12bS)-12b-ethyl-9-(4-fluorophenyl)-3-(trifluoromethyl)-1,2,3,4,4a,5,6,7,9,12b-decahydrobenzo[6,7]cyclohepta[1,2-f]indazol-3-yl)oxy)acetic acid] | > 7.00 | < 5.00 |  |  |
| (2S,3R,4aS,12bS)-12b-ethyl-9-(4-fluorophenyl)-3-(trifluoromethyl)-1,2,3,4,4a,5,6,7,9,12b-decahydrobenzo[6,7]cyclohepta[1,2-f]indazole-2,3-diol [Example 120] | > 7.00 |  |  | 6.00 to 7.00 |

Continued, values first:

| pIC50 [1] | pIC50 ([2]; Homo sapiens) | pIC50 [3] | pIC50 [2] | Compound |
| --- | --- | --- | --- | --- |
| > 7.00 | > 7.00 | > 7.00 |  | CC[C@@]12CC[C@@](O)(C(F)(F)F)C[C@@H]1CCCc1cc3c(cnn3-c3ccc(F)cc3)cc12 (racemic) [Example 1, (3S,4aS,12bR)-12b-Ethyl-9-(4-fluoro-phenyl)-3-trifluoromethyl-1,2,3,4,4a, 5,6,7,9,12b-decahydro-9,10-diaza-benzo[3,4]cyclohepta[1,2-f]inden-3-ol; compound with (3R,4aR,12bS)-12b-ethyl-9-(4-fluoro-phenyl)-3-trifluoromethyl-1,2,3,4,4a,5,6,7,9,12b-decahydro-9,10-diaza-benzo[3,4]cyclohepta[1,2-f]inden-3-ol] |
| > 7.00 | 6.00 to 7.00 | > 7.00 |  | CCC[C@]1(O)CC[C@@]2(CC)c3cc4cnn(-c5ccc(F)cc5)c4cc3CCC[C@@H]2C1 (racemic) [Example 4, (3S,4aR,12bR)-12b-Ethyl-9-(4-fluoro-phenyl)-3-propyl-1,2,3,4,4a,5,6,7,9,12b-decahydro-9,10-diaza-benzo[3,4]cyclohepta[1,2-f]inden-3-ol; compound with (3R,4aS,12bS)-12b-ethyl-9-(4-fluoro-phenyl)-3-propyl-1,2,3,4,4a,5,6,7,9,12b-decahydro-9,10-diaza-benzo[3,4]cyclohepta[1,2-f]inden-3-ol] |
| > 7.00 | > 7.00 | > 7.00 |  | COC[C@@]1(O)CC[C@@]2(Cc3ccccn3)c3cc4cnn(-c5ccc(F)cc5)c4cc3CCC[C@H]2C1 (racemic) [Example 11] |
| > 7.00 | < 5.00 | < 5.00 |  | CC[C@@]12CC[C@](O)(COC)C[C@@H]1CCCc1cc3[nH]ncc3cc12 (racemic) [Example 14, (3R,4aS,12bR)-12b-Ethyl-3-methoxymethyl-1,2,3,4,4a,5,6,7,9,12b-decahydro-9,10-diaza-benzo[3,4]cyclohepta[1,2-f]inden-3-ol; compound with (3S,4aR,12bS)-12b-ethyl-3-methoxymethyl-1,2,3,4,4a,5,6,7,9,12b-decahydro-9,10-diaza-benzo[3,4]cyclohepta[1,2-f]inden-3-ol] |
| > 7.00 | > 7.00 | 6.00 to 7.00 |  | CC[C@@]12CC[C@@](O)(C(F)(F)F)C[C@@H]1CCCc1cc3c(cnn3-c3ccc(F)cc3)cc12 (single isomer, unassigned) [Example 3] |
| > 7.00 | 6.00 to 7.00 | < 5.00 |  | CCC[C@]1(O)CC[C@@]2(CC)c3cc4cnn(-c5ccc(F)cc5)c4cc3CCC[C@@H]2C1 (single isomer, unassigned) [Example 5] |
| > 7.00 |  |  | < 5.00 | CC[C@]12CC[C@@](O)(COC)C[C@H]1CCOc1cc3c(cnn3-c3ccc(F)cc3)cc12 [Example 130] |
| > 7.00 |  |  | > 7.00 | CC[C@@]12CC[C@](O)(COC)C[C@@H]1CCOc1cc3c(cnn3-c3ccc(F)cc3)cc12 [Example 131] |
